Results on eleven molecules are retold here after patent publication US6040305A, “Compounds useful for inhibition of farnesyl protein transferase” (Schering Corporation, priority 1997, dated 2000).

Read-outs that look alike come from different tables or passages of the source. Bounds are passed on as bounds.

Assay [1] addresses T1, farnesyl protein transferase (Homo sapiens, UniProt P49354+P49356). In words: FPT IC50, inhibition of farnesyl protein transferase, in vitro enzyme assay (H-ras). The class given is biochemical. As to the method: (§1) FPT IC50 (inhibition of farnesyl protein transferase, in vitro enzyme assay) and COS Cell IC50 (Cell-Based Assay) were determined following the assay procedures described in WO 95110516, published Apr. 20, 1995. GGPT IC50 (inhibition of geranylgeranyl protein transferase, in vitro enzyme assay), Cell Mat Assay, and anti-tumor activity (in vivo anti-tumor studies) could be determined by the assay procedures described in WO 95/10516. The disclosure of WO 95/10516 is incorporated herein by reference thereto.

Assay [2] concerns the target T1, farnesyl protein transferase. In words: FPT IC50, inhibition of farnesyl protein transferase (K-ras). The assay is classed as biochemical. As to the method: as §1
A further assay concerns COS Cell. Put plainly: COS Cell IC50 (Cell-Based Assay). The method, then:
as §1

The test system of a further assay is Human tumor cells. Put plainly: Soft Agar Assay (anchorage-independent growth). The assay is classed as cell-based. The note with it: 10-16 days at 37° C., 5% CO2, MTT staining, read-out: Soft Agar FPT IC50. As to the method: Anchorage-independent growth is a characteristic of tumorigenic cell lines. Human tumor cells are suspended in growth medium containing 0.3% agarose and an indicated concentration of a farnesyl transferase inhibitor. The solution is overlayed onto growth medium solidified with 0.6% agarose containing the same concentration of farnesyl transferase inhibitor as the top layer. After the top layer is solidified, plates are incubated for 10-16 days at 37° C. under 5% CO2 to allow colony outgrowth. After incubation, the colonies are stained by overlaying the agar with a solution of MTT (3-[4,5-dimethyl-thiazol-2-yl]-2,5-diphenyltetrazolium bromide, Thiazolyl blue) (1 mg/mL in PBS). Colonies can be counted and the IC50 's can be determined.

Usually IC50 stands for the concentration at which inhibition is half-maximal. Turning to `NC(=O)CN1CCC(CC(=O)N2CCC([C@H]3c4ncc(Br)cc4CCc4cc(Cl)cc(Br)c43)CC2)CC1` [Compound 2.0], the IC50 in assay [1] amounted to 1.8 nM; in assay [2], 8.6 nM; in the assay with COS Cell, 6 nM; in the assay with Human tumor cells, 70 nM.

Turning to `CON(C)C(=O)CN1CCC(CC(=O)N2CCC([C@H]3c4ncc(Br)cc4CCc4cc(Cl)cc(Br)c43)CC2)CC1` [Compound 3.0], the IC50 stood at 3.9 nM in assay [1], 26 nM in assay [2], 20 nM in the assay on COS Cell and 175 nM with Human tumor cells.

Take `CCN(CC)C(=O)CN1CCC(CC(=O)N2CCC([C@H]3c4ncc(Br)cc4CCc4cc(Cl)cc(Br)c43)CC2)CC1` [Compound 4.0]: the IC50 was found to be 4.3 nM in assay [1], 46 nM in assay [2], 40 nM in the assay on COS Cell and 300 nM with Human tumor cells.

For the molecule `O=C(CN1CCC(CC(=O)N2CCC([C@H]3c4ncc(Br)cc4CCc4cc(Cl)cc(Br)c43)CC2)CC1)NCc1ccccc1` [Compound 5.0], the concentration for half-maximal inhibition (IC50) is 16 nM in assay [1], 51.9 nM in assay [2] and 840 nM with COS Cell.

For the molecule `O=C(CN1CCC(CC(=O)N2CCC([C@H]3c4ncc(Br)cc4CCc4cc(Cl)cc(Br)c43)CC2)CC1)N[C@@H]1O[C@H](CO)[C@H](O)[C@H](O)[C@H]1O` [Compound 6.0], the IC50 in assay [1] is 3.4 nM; in assay [2], 17 nM; with COS Cell it was 300 nM; with Human tumor cells (value given in M), over 500 nM.

Consider `O=C(CC1CCN(CC(=O)N2CCOCC2)CC1)N1CCC([C@H]2c3ncc(Br)cc3CCc3cc(Cl)cc(Br)c32)CC1` [Compound 7.0], for which the IC50 worked out at 5 nM in assay [1], 20 nM in assay [2], 25 nM in the assay on COS Cell and 100 nM in the assay on Human tumor cells.

Regarding `CC(C)(C)OC(=O)N1CCN(C(=O)CN2CCC(CC(=O)N3CCC([C@H]4c5ncc(Br)cc5CCc5cc(Cl)cc(Br)c54)CC3)CC2)CC1` [Compound 8.0], the IC50 in assay [1] was 18 nM; in assay [2], 42 nM; with COS Cell, 22 nM; in the assay on Human tumor cells it was over 500 nM.

Take `O=C(CC1CCN(CC(=O)N2CCNCC2)CC1)N1CCC([C@H]2c3ncc(Br)cc3CCc3cc(Cl)cc(Br)c32)CC1` [Compound 9.0]: the IC50 in assay [1] is 4.3 nM; in assay [2] it was 17 nM; with COS Cell, 120 nM; in the assay with Human tumor cells, 500 nM.

Turning to `O=C(CC1CCN(CC(=O)N2CCc3ccccc32)CC1)N1CCC([C@H]2c3ncc(Br)cc3CCc3cc(Cl)cc(Br)c32)CC1` [Compound 10.0], the values for the IC50 (in assay [1]; with COS Cell) were 5.4 nM and 100 nM, respectively.

The molecule `CC(C)(C)OC(=O)CN1CCC(CC(=O)N2CCC([C@H]3c4ncc(Br)cc4CCc4cc(Cl)cc(Br)c43)CC2)CC1` [Compound 11.0] returned an IC50 in assay [1] of 28 nM.

On to `O=C(CC1CCN(CC(O)CO)CC1)N1CCC([C@H]2c3ncc(Br)cc3CCc3cc(Cl)cc(Br)c32)CC1` (stereo partly shown) [Compound 20.0], for which the values for the IC50 (in assay [1]; in the assay on COS Cell; in the assay with Human tumor cells) were 2 nM, under 10 nM and 60 nM, respectively.
